# From patent US9066936B2, “Solid pharmaceutical composition comprising a benzimidazole-7-carboxylate derivative and a pH control agent” (Takeda Pharmaceutical Company Limited, priority 2007, dated 2015)
# How the values were obtained:
# [1] = Solubility of compound A in aqueous solutions with different pHs; assay type: physicochemical; conditions: thermodynamic from solid, 25° C.
# Protocol: An excess amount of compound A and an aqueous solution were placed in a test tube, and the mixture was shaken at 25° C. for 30 sec every 5 min. After 30 min, the solution was filtered with a 0.45 μm membrane filter to give a sample. Using the sample, the concentration of compound A was measured under the following HPLC conditions.
# detector: ultraviolet absorption photometer,
# measurement wavelength: 260 nm
# column: YMC-Pack ProC18, 3 μm, inner diameter: 6 mm,
# column temperature: 25° C. • mobile phase: 0.05 mol/L phosphate buffer (pH 3.0)/acetonitrile mixed solution (1:1)
# [2] = pH of pH control agent dissolved or suspended in water; assay type: physicochemical; conditions: 1% w/v in water at 25° C.
# Protocol: Here, the pH of the pH control agent is measured under the following conditions. To be precise, it is a pH of a solution or suspension obtained by dissolving or suspending a pH control agent in water at a concentration of 1% w/v at 25° C.
# A pH control agent was dissolved or suspended in water at a concentration of 1% w/v at 25° C., and the resulting solution or suspension was measured for pH.
Structure (SMILES),"solubility at 30 min ([1]; aqueous buffer, pH 2.0 Britton Robinson buffer) [µg/mL]","solubility at 30 min ([1]; aqueous buffer, pH 3.0 Britton Robinson buffer) [µg/mL]","solubility at 30 min ([1]; aqueous buffer, pH 4.0 Britton Robinson buffer) [µg/mL]","solubility at 30 min ([1]; aqueous buffer, pH 5.0 Britton Robinson buffer) [µg/mL]","solubility at 30 min ([1]; aqueous buffer, pH 6.0 Britton Robinson buffer) [µg/mL]","solubility at 30 min ([1]; aqueous buffer, pH 7.0 Britton Robinson buffer) [µg/mL]","solubility at 30 min ([1]; simulated gastric fluid, 0.1 mol/L HCl) [µg/mL]",pH (25° C.) [2]
"CCOc1nc2cccc(C(=O)OCc3oc(=O)oc3C)c2n1Cc1ccc(-c2ccccc2-c2noc(=O)[nH]2)cc1.[K] [compound A, (5-methyl-2-oxo-1,3-dioxol-4-yl)methyl 2-ethoxy-1-{[2′-(5-oxo-4,5-dihydro-1,2,4-oxadiazol-3-yl)biphenyl-4-yl]methyl}-1H-benzimidazole-7-carboxylate potassium salt]",< 10,< 10,< 10,< 10,< 10,940,< 10,–
O=C([O-])/C=C/C(=O)O.[Na+] [monosodium fumarate],–,–,–,–,–,–,–,3.57
O=P([O-])(O)O.[Na+] [sodium dihydrogen phosphate],–,–,–,–,–,–,–,4.56
